Data reported in US11382985B2, “Anti-tumour immune responses to modified self-epitopes” (Scancell Limited, priority 2015, dated 2022).
Square brackets hold non-standard residues; d marks the D form. Ends that are not written are not given here. Cit = NC(=O)NCCC[C@H](N)C(=O)O

Tests used:
[1] = tested on: PBMCs; test: Luminex cytokine analysis of PBMC culture supernatants; format: cell-based, human
Method: A three-step indirect procedure was used for the multiplexed Luminex assay (Invitrogen) for IgG antibodies to IL-10, IL-17, IFNy, TNFα, IL-2 & IL-4. Standard, control, and unknown sera were diluted 1:2 in 50% assay diluent buffer (Invitrogen) & 50% serum free RPMI. Serial standard dilutions were included in each assay. Each dilution of standard, control, and unknown sera was mixed with a set of coupled Luminex microspheres in 96-well filtration plates (Millipore Multiscreen; Millipore Corporation, Bedford, Mass.) and incubated for 2 hours at room temperature with shaking. Microspheres were collected by vacuum filtration and washed with PBST. Biotinylated detector antibody was added to each well for 1 hour at room temperature with shaking. Microspheres were collected by vacuum filtration and washed with PBST. Streptavidin conjugated R-phycoerythrin—was added to each well. Following a 30 minute incubation and a wash step, microspheres were resuspended in PBST, and read in a Biorad BioPlex Luminex analyzer equipped with an XY platform. Data acquisition and analysis performed with Luminex software (BioPlex Systems)

[2] = tested on: splenocytes; test: Peptide immunisation and ex vivo Elispot, DR4 mice; format: in vivo, HLA-DR4 transgenic mouse
Method: C57BL/6 mice (Charles River, UK), HLA-DR4 mice (Taconic, USA), HHDII/DR1 mice (Pasteur institute, France) and the HHD/HLA-DP4 transgenic strain of mouse as described in patent WO2013/017545 A1 (EMMA repository, France) were used, aged between 8 and 12 weeks, and cared for by the staff at Nottingham Trent University. All work was carried out under a Home Office project licence. Peptides were dissolved in PBS to 1 mg/ml and then emulsified (a series of dilutions) with different adjuvants: CpG and MPLA 6 μg/mouse of each (Invivogen, UK), Incomplete Freund's 50 μl/mouse (Sigma, UK), poly I:C 10 μg/mouse (Invivogen, UK), Imiquimod 25 μg/mouse (Invivogen, UK) and GMCSF 10 μg/mouse (Peprotech, UK). Peptides (25 μg/mouse) were injected subcutaneously at the base of the tail. DNA (1 μg/mouse) was coated onto 1.0 μm gold particles (BioRad, Hemel Hempstead, UK) using the manufacturer's instructions and administered intradermally by genegun (BioRad). Homspera (10 nM/mouse) (PeptideSynthetics, UK) was injected intradermally with genegun immunisation. Mice were immunized at either day 0 for peptide immunisation or days, 0 and 7 for genegun immunisation, unless otherwise stated. Spleens were removed for analysis at day 14 for peptide and day 20 for peptide or genegun immunisation unless stated otherwise.
Elispot assays were performed using murine IFNγ, IL-17 and IL-10 capture and detection reagents according to the manufacturer's instructions (Mabtech, Sweden). In brief, anti-IFNγ, IL-17 and IL-10 antibodies were coated onto wells of 96-well Immobilin-P plate. Synthetic peptides (at a variety of concentrations) and 5×10^5 per well splenocytes were added to the wells of the plate in triplicate. Tumour target cells were added where relevant at 5×10^4/well in triplicate and plates incubated for 40 hrs at 37° C. After incubation, captured IFN and IL-10 were detected by biotinylated anti-IFNγ and IL-10 antibodies and developed with a streptavidin alkaline phosphatase and chromogenic substrate. Spots were analysed and counted using an automated plate reader (Cellular Technologies Ltd).

[3] = tested on: Pan02 DR4; test: Pan02 DR4 pancreatic tumour challenge; format: in vivo, DR4 transgenic mice; details: peptide immunisation 4 days after tumour challenge; none of unimmunized survived
[4] = tested on: PBMCs; test: PBMC culture and IFNγ Elispot; format: cell-based, human; details: donors 1 and 4, PBMCs cultured 13 days; label = restimulating peptide
Method: PBMC were isolated from freshly drawn heparinised blood by Ficol-Hypaque (Sigma) gradient centrifugation. PBMC (1.5×10^6 cells/well) were stimulated with single peptides (final concentration 10 μg/ml) in RPMI containing 5% pooled autologous human serum, 2 mM glutamine, 20 mM HEPES, Penicillin-streptomycin (1%), 10 ng/ml recombinant human IL-15 and 5 ng/ml recombinant human IL-7 in a final volume of 2 ml. Recombinant human IL-2 was added on day 3 at 20 IU/ml. On day 13 cells were washed and added to human IFN elispot assay. Elispot assays were performed using human IFNγ capture and detection reagents according to the manufacturer's instructions (Mabtech, Sweden). In brief, anti-IFNγ antibody was coated onto wells of 96-well Immobilin-P plate. Synthetic peptides (at 10 μg/ml) and 1×10^5 per well PBMCs were added to the wells of the plate in quadruplicate and plates incubated for 20 hrs at 37° C. After incubation, captured IFNγ was detected by biotinylated anti-IFN antibody and developed with a streptavidin alkaline phosphatase and chromogenic substrate. Spots were analysed and counted using an automated plate reader (Cellular Technologies Ltd).

[5] = tested on: PBMCs; test: Thymidine proliferation assay on healthy donor PBMCs; format: cell-based, human; details: for healthy donors showing a proliferative response: PBMCs from 6 healthy donors, peptide 10 μg/ml, days 4, 7, 11
Method: PBMC were isolated from freshly drawn heparinised blood by Ficol-Hypaque (Sigma) gradient centrifugation. PBMC (1.5×10^6 cells/well) were stimulated with single peptides (final concentration 10 μg/ml) in RPMI containing 5% pooled autologous human serum, 2 mM glutamine, 20 mM HEPES and Penicillin-streptomycin (1%) in a final volume of 2 ml. Stimulation with purified protein derivative, PPD (final concentration 10 μg/ml) served as a positive control for the proliferative capacity of PBMC. As a negative control PBMC were incubated with medium alone. The PBMC were cultured at 37° C. in an atmosphere of 5% CO2 for 4, 7 and 11 days. To assess proliferation at these times points 100 μl in triplicate from each culture was aliquoted into a round bottom well of a 96 well plate and 3H-thymidine added (0.0185 MBq/well) and incubated at 37° C. for a further 8 hours. The cultures were harvested onto unifilter plates and incorporation of ^3H-thymidine was determined by β-scintillation counting. The results were assessed by calculating the stimulation index (SI) as the ratio of the mean of counts per minute (cpm) of epitope-stimulated to the mean of unstimulated cultures. The proliferative assay was considered positive when SI >2.5.

[6] = DR4 mice immunised with human 241cit
[7] = DR4 mice, single immunisation 25 μg human 241cit + CpG/MPLA

VIGMDVAASEFF-CIT-SGKYDLD (VIGMDVAASEFF[Cit]SGKYDLD; listed as Homo sapiens) [Enolase 241cit]
IL-17, Granzyme B and TNFα levels above media background ([1]; Donor 4 supernatants): higher
IFNγ and IL-10 levels above media background ([1]; Donor 4 supernatants at each time point): citrullinated peptide specific responses which increased over time
IFNγ response ([1]; cultures on 3 donors): IFNγ responses
IL-10, TNFα or IL-17 responses ([1]; cultures on 3 donors): low level
IL-17 production by normal donors ([1]; normal donors stimulated with peptide): no IL-17 was produced
IFN response with GM-CSF ([2]; 1 or 3 doses with 25 μg of peptide): Detectable responses
IFNγ response in CD4 depleted fraction [2, 6]: not
IFNγ response in CD4 enriched fraction [2, 6]: present
IFNγ response in presence of CD4 blocking antibody (GK1.5) [2, 6]: significantly reduced
IL-10 production in response to peptide stimulation ([2]; DR4 mice immunised with human 241cit, ex vivo IL-10 ELISpot): No significant increase in IL-10 production
IFNγ response in presence of human MHC class II blocking antibody (L243) ([2]; DR4 mice immunised with human 241cit, label = restimulating peptide): significantly reduced
IFNγ response with adjuvant CpG/MPLA ([2]; DR4 mice, single dose): detected
IFNγ response with adjuvant IFA ([2]; DR4 mice, single dose): no IFNγ response
IL-10 response with adjuvant CpG/MPLA ([2]; DR4 mice, single dose): not
IL-10 response with adjuvant IFA ([2]; DR4 mice, single dose): detected
IFNγ responses after 6 and 14 days compared to after 2 days ([2]; DR4 mice, single dose in CpG/MPLA): significantly increased
time after immunisation at which IFNγ response is detectable ([2]; DR4 mice, single dose in CpG/MPLA, sacrificed after 2, 6 or 14 days): 6 days
IFNγ response to human citrullinated sequence compared to media [2, 7]: significant IFNγ response
IFNγ response to mouse citrullinated sequence compared to media [2, 7]: significant IFNγ response
immune response to human or mouse wild type (wt) sequence [2, 7]: neither
IFNγ response in combination with poly I:C ([2]; DR4 transgenic mice): induces IFNγ responses
IL-10 response in combination with poly I:C ([2]; DR4 transgenic mice): no IL-10
response in the absence of adjuvant ([2]; peptide immunisation without adjuvant): no response
survival at day 60 [3]: 50%
IFNγ response on restimulation [4]: show responses
proliferation index, mean ([5]; Donor 1, day 4): 0.8
proliferation index, mean ([5]; Donor 1, day 7): 28.6
proliferation index, mean ([5]; Donor 1, day 11): 20.4
proliferation index, mean ([5]; Donor 2, day 11): 2.7
proliferation index, mean ([5]; Donor 4, day 4): 12.5
proliferation index, mean ([5]; Donor 4, day 7): 28
proliferation index ([5]; Donor 4, day 11): 4.4
proliferative response ([5]; Donor 6): non-responder
healthy donors showing a proliferative response [5]: 5/6
healthy donors showing a proliferative response ([5]; listed as Enolase 241-260 citrullinated at position 253): 4/6
